In patent publication US10414763B2 (CANCER RESEARCH TECHNOLOGY LIMITED, priority 2014, dated 2019):
pIC50: −log10 of the molar value.

The compounds below were run against T1, full-length human PKCι (Homo sapiens, UniProt P41743) (assay: PKCι IC50 IMAP fluorescence polarisation assay, full-length enzyme, 150 μM ATP). Settings: read-out: IC50 in IMAP assay against full length PKCi at 150 μM ATP.
T1 construct: Recombinant, full-length human PKCι expressed in Sf21 insect cells is also commercially available; purchased EMD Millipore; host or cells: Sf21 insect cells (baculovirus)
T1 sequence (P41743 1-596): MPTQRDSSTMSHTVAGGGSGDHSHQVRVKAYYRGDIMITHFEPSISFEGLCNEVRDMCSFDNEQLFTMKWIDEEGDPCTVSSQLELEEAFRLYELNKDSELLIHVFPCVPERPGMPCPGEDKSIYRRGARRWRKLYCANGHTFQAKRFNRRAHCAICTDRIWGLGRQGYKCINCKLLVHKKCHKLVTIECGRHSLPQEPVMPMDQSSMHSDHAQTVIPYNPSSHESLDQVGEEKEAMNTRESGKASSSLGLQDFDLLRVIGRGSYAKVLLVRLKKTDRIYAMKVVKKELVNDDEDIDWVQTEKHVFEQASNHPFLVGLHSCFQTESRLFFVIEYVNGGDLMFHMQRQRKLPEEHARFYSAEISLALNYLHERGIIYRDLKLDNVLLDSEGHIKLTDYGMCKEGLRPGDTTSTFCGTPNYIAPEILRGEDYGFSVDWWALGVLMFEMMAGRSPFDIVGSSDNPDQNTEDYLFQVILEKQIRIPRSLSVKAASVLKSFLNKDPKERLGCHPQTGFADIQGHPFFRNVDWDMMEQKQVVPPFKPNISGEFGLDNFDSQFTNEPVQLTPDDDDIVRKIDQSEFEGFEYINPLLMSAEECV
Type: biochemical
Description: Assays are based on the ability of PKCι to phosphorylate a commercially available peptide substrate in vitro. The peptide substrate is FAM-PKCε pseudopeptide derived peptide, and comprises the amino acid sequence 5FAM-ERMRPRKRQGSVRRRV-NH2. Recombinant, full-length human PKCι expressed in Sf21 insect cells is also commercially available. Recombinant, kinase-domain human PKCι is expressed and purified in-house.
The procedure below explains how dose response curves for inhibitors of PKCι are obtained. The screen described is for a 384 well format but the assay can be adapted to 1536 or other formats as required.
Compounds to be tested are dissolved in 100% DMSO. Compounds are diluted as required to give a final concentration of 4% DMSO (v/v) in the assay. 1 μl is plated into 384 well black low-binding flat bottomed assay plates which are used immediately. Dilutions and additions of compound to assay plates are carried out using Matrix WellMate® and Matrix PlateMate® Plus liquid handling systems.
On the day of the screen PKCι/substrate working solution, and ATP working solution, are prepared in buffer containing 20 mM tris-HCl pH7.5, 10 mM MgCl2, 0.01% Triton X100, 250 μM EGTA and 1 mM DTT. The final concentration of PKCι used varies depending on the batch of protein but is typically 15 pM. The final concentration of peptide substrate in the assay is 100 nM. ATP is used at a final concentration of 150 μM or 25 μM in the assays containing full-length or kinase-domain PKCι respectively, which corresponds to five times or equal to the KM^APP for ATP for each enzyme, respectively. The final buffer concentration in the assay is 18 mM tris-HCl pH7.5, 9 mM MgCl2, 0.009% Triton X100, 225 μM EGTA and 0.9 mM DTT. Relevant controls are included, namely no compound and no enzyme. 5 μl PKCι/substrate working solution at 30 pM and 200 nM, respectively, is added to the wells, followed by 4 μl ATP working solution at 375 μM or 62.5 μM for full-length or kinase-domain PKCι respectively, using a 16 channel Matrix pipette. The reaction is allowed to incubate for 60 minutes at room temperature, before the reaction is stopped and developed by the addition of 20 μl IMAP™ development reagent (Molecular Devices). IMAP development reagent consists of 0.25% (v/v) IMAP progressive binding reagent, 17% (v/v) IMAP progressive binding buffer A and 3% (v/v) IMAP progressive binding buffer B. The plates are then incubated for 2 hours at room temperature before being read using an appropriate plate reader, for example a Molecular Devices HT Analyst or a BMG Pherastar. Plates are read using a fluorescence polarisation protocol with excitation at 485 nm and emission at 530 nm, and dichroic mirror at 505 nm.
Percentage inhibition values are calculated from fluorescence polarisation values, using the no compound and no enzyme control values as 0% and 100% inhibition, respectively. IC50 determination is performed with ExcelFit software (IDBS) using curve fit 205. Z′ factors are determined for each plate tested and are all above 0.5.
Alternatively, compounds were tested for their ability to inhibit the kinase activity of recombinant human baculovirus-expressed PKCiota using the immobilized metal-ion affinity particle (IMAP®) fluorescence polarization detection system (Molecular Devices, Sunnyvale, Calif.). PKCiota/IMAP® substrate mixture (2×) was prepared in 1×IMAP assay buffer (Molecular Devices) containing 1 mM DTT so that the final assay concentrations were 15 pM PKCiota (EMD Millipore, Billerica, Mass.) and 100 nM 5-fluorescein-amidite (FAM)-PKC ? -pseudosubstrate (5-FAM-ERMRPRKRQGSVRRRV-NH2) (Molecular Devices). The 2× working solution was added at 5 μL/well into a 384-well black, non-binding, flat bottom assay plate (Corning, Corning, N.Y.). […]

Row | pIC50 | Compound
1 | > 7.00 | C[C@H]1C[C@@H](Nc2nc(-c3ccnc(Nc4nc(F)ccc4F)c3)nc3cncc(C4CC4)c23)CCN1 (racemic) [Example 225, (±)-{5-Cyclopropyl-2-[2-(3,6-difluoro-pyridin-2-ylamino)-pyridin-4-yl]-pyrido[3,4-d]pyrimidin-4-yl}-((2,4-cis)-2-methyl-piperidin-4-yl)-amine]
2 | > 7.00 | FC(F)(F)c1cc2c(-c3nc(N4CC[C@H]5CNC[C@H]54)c4c(C5CC5)cncc4n3)ccnc2[nH]1 [Example 20, 5-Cyclopropyl-4-(3aS,6aS)-hexahydro-pyrrolo[3,4-b]pyrrol-1-yl-2-(2-trifluoromethyl-1H-pyrrolo[2,3-b]pyridin-4-yl)-pyrido[3,4-d]pyrimidine]
3 | > 7.00 | NC1CCC(Nc2nc(-c3ccnc4[nH]c5ccccc5c34)nc3cncc(C4CCC4)c23)C1 (stereo not shown) [Example 60, N-[5-Cyclobutyl-2-(9H-pyrido[2,3-b]indol-4-yl)-pyrido[3,4-d]pyrimidin-4-yl]-cyclopentane-1,3-diamine]
4 | > 7.00 | c1ccc2c(c1)[nH]c1nccc(-c3nc(N4CCOC5CNCC54)c4c(C5CCC5)cncc4n3)c12 (stereo not shown) [Example 206, 4-[5-Cyclobutyl-4-(hexahydro-pyrrolo[3,4-b][1,4]oxazin-4-yl)-pyrido[3,4-d]pyrimidin-2-yl]-9H-pyrido[2,3-b]indole]
5 | > 7.00 | Fc1ncccc1-c1cc2c(-c3nc(N4CCNCC4)c4c(C5CC5)cncc4n3)ccnc2[nH]1 [Example 43, 5-Cyclopropyl-2-[2-(2-fluoro-pyridin-3-yl)-1H-pyrrolo[2,3-b]pyridin-4-yl]-4-piperazin-1-yl-pyrido[3,4-d]pyrimidine]
6 | > 7.00 | FC(F)(F)c1cc2c(-c3nc(N4CC[C@H]5NCCC[C@H]54)c4c(C5CCC5)cncc4n3)ccnc2[nH]1 (racemic) [Example 80, (±)-5-Cyclobutyl-4-(3,7-cis)-octahydro-pyrrolo[3,2-b]pyridin-1-yl-2-(2-trifluoromethyl-1H-pyrrolo[2,3-b]pyridin-4-yl)-pyrido[3,4-d]pyrimidine]
7 | > 7.00 | CC1(C)CNCC[C@@H]1Nc1nc(-c2ccnc(Nc3ccc(F)cn3)c2)nc2cncc(C3CC3)c12 [Example 393, {5-Cyclopropyl-2-[2-(5-fluoro-pyridin-2-ylamino)-pyridin-4-yl]-pyrido[3,4-d]pyrimidin-4-yl}-((S)-3,3-dimethyl-piperidin-4-yl)-amine]
8 | > 7.00 | CN(c1nc(-c2ccnc3[nH]c(-c4csc(C(C)(C)C)n4)cc23)nc2cncc(C3CC3)c12)C1CCNCC1(C)C (stereo not shown) [Example 32, {2-[2-(2-tert-Butyl-thiazol-4-yl)-1H-pyrrolo[2,3-b]pyridin-4-yl]-5-cyclopropyl-pyrido[3,4-d]pyrimidin-4-yl}-(3,3-dimethyl-piperidin-4-yl)-methyl-amine]
9 | > 7.00 | CC1(C)CNCCC1Nc1nc(-c2ccnc3[nH]c(-c4ccc(C(N)=O)cc4)cc23)nc2cncc(C3CC3)c12 (stereo not shown) [Example 156, 4-{4-[5-Cyclopropyl-4-(3,3-dimethyl-piperidin-4-ylamino)-pyrido[3,4-d]pyrimidin-2-yl]-1H-pyrrolo[2,3-b]pyridin-2-yl}-benzamide]
10 | > 7.00 | CC1(C)CNCCC1Nc1nc(-c2ccnc(Nc3cccnc3F)c2)nc2cncc(C3CCC3)c12 (stereo not shown) [Example 92, {5-Cyclobutyl-2-[2-(2-fluoro-pyridin-3-ylamino)-pyridin-4-yl]-pyrido[3,4-d]pyrimidin-4-yl}-(3,3-dimethyl-piperidin-4-yl)-amine]
11 | > 7.00 | CC1(C)CNCC[C@@H]1Nc1nc(-c2ccnc(Nc3cccnc3)c2)nc2cncc(C3CCC3)c12 [Example 264, 5-cyclobulyl-N-[(4S)-3,3-dimethyl-4-piperidyl]-2-[2-(3-pyridylamino)-4-pyridyl]pyrido[3,4-d]pyrimidin-4-amine]
12 | > 7.00 | CC1(C)CNCC[C@@H]1Nc1nc(-c2ccnc(Nc3ccc4cccc(F)c4n3)c2)nc2cncc(C3CCC3)c12 [Example 318, {5-Cyclobutyl-2-[2-(8-fluoro-quinolin-2-ylamino)-pyridin-4-yl]-pyrido[3,4-d]pyrimidin-4-yl}-((S)-3,3-dimethyl-piperidin-4-yl)-amine]
13 | > 7.00 | OC1CNCCC(Nc2nc(-c3ccnc4[nH]c5ccccc5c34)nc3cncc(C4CCC4)c23)C1 (racemic) [Example 230, Cis- or trans-(±)-5-[5-Cyclobutyl-2-(9H-pyrido[2,3-b]indol-4-yl)-pyrido[3,4-d]pyrimidin-4-ylamino]-azepan-3-ol]
14 | > 7.00 | FC1CNCCC(Nc2nc(-c3ccnc4[nH]c5ccccc5c34)nc3cncc(C4CCC4)c23)C1 (stereo not shown) [Example 232, [5-Cyclobutyl-2-(9H-pyrido[2,3-b]indol-4-yl)-pyrido[3,4-d]pyrimidin-4-yl]-(6-fluoro-azepan-4-yl)-amine]
15 | > 7.00 | CC1(C)CNCCC1Nc1nc(-c2ccnc(Nc3nccc4ccccc34)c2)nc2cncc(C3CCC3)c12 (stereo not shown) [Example 89, {5-Cyclobutyl-2-[2-(isoquinolin-1-ylamino)-pyridin-4-yl]-pyrido[3,4-d]pyrimidin-4-yl}-(3,3-dimethyl-piperidin-4-yl)-amine]
16 | > 7.00 | CC1(C)CNCCC1Nc1nc(-c2ccnc(Nc3ccc(F)cn3)c2)nc2cncc(C3CCC3)c12 (stereo not shown) [Example 67, {5-Cyclobutyl-2-[2-(5-fluoro-pyridin-2-ylamino)-pyridin-4-yl]-pyrido[3,4-d]pyrimidin-4-yl}-(3,3-dimethyl-piperidin-4-yl)-amine]

Row | Compound | pIC50
17 | CSc1cc2c(-c3nc(N(C)C4CCNCC4)c4c(C5CC5)cncc4n3)ccnc2[nH]1 [Example 119, [5-Cyclopropyl-2-(2-methylsulfanyl-1H-pyrrolo[2,3-b]pyridin-4-yl)-pyrido[3,4-d]pyrimidin-4-yl]-methyl-piperidin-4-yl-amine] | > 7.00
18 | CN(c1nc(-c2ccnc3[nH]c(-c4cc(Cl)ccc4Cl)cc23)nc2cncc(C3CC3)c12)C1CCNCC1(C)C (stereo not shown) [Example 45, {5-Cyclopropyl-2-[2-(2,5-dichloro-phenyl)-1H-pyrrolo[2,3-b]pyridin-4-yl]-pyrido[3,4-d]pyrimidin-4-yl}-(3,3-dimethyl-piperidin-4-yl)-methyl-amine] | > 7.00
19 | CN(c1nc(-c2ccnc(Nc3nc(F)ccc3F)c2)nc2cncc(C3CC3)c12)[C@H]1CCNCC1(C)C [Example 331, 5-Cyclopropyl-2-[2-[(3,6-difluoro-2-pyridyl)amino]-4-pyridyl]-N-[(4S)-3,3-dimethyl-4-piperidyl]-N-methyl-pyrido[3,4-d]pyrimidin-4-amine] | > 7.00
